Where two headings read alike, the source gives them in different places.
Legend:
zebrafish larvae [1] = assay: Vascular occlusion by laser irradiation, time to occlusion (TTO); type: in vivo; details: normal TTO 17±5.0 seconds; for Time to occlusion (TTO), laser irradiation assays: embryos microinjected with morpholino, screened at 3 dpf
Procedure: For laser irradiation treatment, 1 to 5 larvae (3 mm) were placed in 250 μL of water and anesthetized with 10 μl of Tricaine solution (300 μmol/L, Sigma, MO). 250 μL of 1% low-melting agarose solution (at 40° C.) were added to the anesthetized larvae and each larva, along with approximately 100 μL of agarose solution, was positioned inside a viewing well that was formed by placing a plastic ring on a glass microscope slide. Before treatment, water was allowed to soak into the agarose blocks to wash out the anesthetic. Pulsed nitrogen laser light pumped through coumarin 440 dye (445 nm) (MicroPoint Laser system, Photonic Instruments Inc, IL) at seven pulses/second was delivered to larvae for five seconds through a 10× objective on a Nikon Optiphot microscope. The progress of occlusion was recorded using a Nikon CoolPix 995 CCD camera.
Larvae at 2 and 3 dpf were treated with warfarin as described (Hanumanthaiah et al., 2001, specifically incorporated herein by reference) for 24 hours. Larvae were rinsed in water and tested with either chemical or laser methods of vessel injury. Morpholinos (Discovery Genomics Inc.) were designed against 5′-UTR around the translational start site of zebrafish factor VII (Sheehan et al., 2001, specifically incorporated herein by reference or factor VIIi (Hanumanthaiah et al., 2002, specifically incorporated herein by reference). Sequences were as follows:
For each morpholino a working solution (2 mg/mL) was prepared as previously described (Nasevicius & Ekker, 2000, specifically incorporated herein by reference). Embryos were generated by in vitro fertilization as described (Westerfield, 2000, specifically incorporated herein by reference) and 9 nL of either morpholino solution were injected into the yolk of embryos at the single to four cell stages. Control embryos were microinjected with an equal volume of PBS. Embryos were maintained at 28° C. and screened at 3 dpf.

zebrafish larvae [2] = assay: Vascular occlusion with phenylhydrazine, time to occlusion (TTO); type: in vivo
Procedure: (§1) For screening studies, larvae at three to five days postfertilization (dpf) were placed in 500 μL of water and an equal volume of phenylhydrazine (40 mmol/L phenylhydrazine HCl (PHZ), Sigma, MO) or FeCl3 (40 mmol/L) solution was added. Each larva, along with 9 μL of solution, was placed in a 3 mm×1 mm×3 mm well of an acrylic viewing chamber (narrow wells limited the motion of larvae for better viewing). For recording purposes, larvae were also immobilized in agarose, as described below, and 100 μl of either FeCl3 or PHZ were layered on top of the agarose block. Vascular occlusion was recorded using an inverted Olympus microscope equipped with a Javelin MOS solid-state camera (Japan) connected to a VHS recorder.

erythrocytes = assay: Annexin V binding, flow cytometry of blood cells from treated adult zebrafish; type: in vivo; details: 5 mmol/L for five minutes, FITC annexin V
Procedure: Adult zebrafish were placed in a 500 mL solution of phenylhydrazine (5 mmol/L phenylhydrazine HCl, pH 7.2 in 20 mmol/L Tris) or FeCl3 (5 mmol/L) for five minutes and then rinsed with de-ionized water. Two μL of blood were collected, as described (Jagadeeswaran et al., 2000a, specifically incorporated herein by reference), from control or treated zebrafish and blood cells were isolated by centrifugation of the blood sample at 800 g for two minutes, followed by removal of the supernatant. The cell pellet was washed once with 200 μL of PBS, centrifuged and resuspended in 200 μL of binding buffer (ApoAlert; Clontech, Calif.) followed by addition of 5 μL of FITC conjugated Annexin-V (Clontech, Calif.). Samples were incubated for ten minutes in dark at 25° C. and visualized ulsing a 20× UplanApo objective on an Olympus FV500 confocal microscope or processed by flow cytometry (Gregory & Jagadeeswaran, 2002).

zebrafish larvae [3] = tested on: zebrafish larvae
Procedure: as §1

[4] = larvae treated with warfarin for 24 hours

Compound: 5′-CAAGCAGCAGACTC ATATTTACTGC-3′ (SEQ ID NO:1) (antisense CAAGCAGCAGACTCATATTTACTGC; all phosphorodiamidate morpholino (PMO)) [FVIIas]
- Time to occlusion (TTO), laser irradiation assays (zebrafish larvae [1]): 55 ± 9 s

Compound: Cl.NNc1ccccc1 [phenylhydrazine, phenylhydrazine HCl]
- Time to occlusion (TTO) induced by the agent, mean±standard deviation (zebrafish larvae [2]; wild type larvae at four dpf, n=500): 10 ± 2.5 min
- Erythrocytes exhibiting externalization of PS (erythrocytes): approximately 18%

Compound: [Cl][Fe]([Cl])[Cl] [FeCl3, ferric chloride]
- Time to occlusion (TTO) induced by the agent, mean±standard deviation (zebrafish larvae [3]; wild type larvae at three dpf, n=1000): 6 ± 2 min

Compound: 5′-GTCACTGACCTCAGCCTGTTCACAA-3′ (SEQ ID NO:2) (morpholino, further chemistry not given here) [FVIIias]
- Time to occlusion (TTO), laser irradiation assays (zebrafish larvae [1]): 9 ± 3 s

Compound: CC(=O)CC(c1ccccc1)c1c(O)c2ccccc2oc1=O (centres unmarked) [Warfarin, warfarin]
- Time to occlusion (TTO), FeCl3 injury (zebrafish larvae [3]; larvae treated with warfarin for 24 hours, normal TTO 6±2 minutes): > 10 min
- Time to occlusion (TTO), laser irradiation injury (zebrafish larvae [1]; [4]): > 1 min
- Effect on TTO in phenylhydrazine induced vascular occlusion (zebrafish larvae [2]; [4]): did not affect TTO

Source: patent publication US7357916B2, “Method for creating a uniform vascular wound in zebrafish or zebrafish larva” (priority 2002, dated 2008)
